Measured values as given in article PMC11597697, “Chemical Composition and Bioactivity Dataset Integration to Identify Antiproliferative Compounds in Phyllanthus Plants” (Pharmaceutics, 2024).
Read-outs that look alike come from different tables or passages of the source.

Key:
[1] = test system: PC-3 (prostate adenocarcinoma); test: Antiproliferative MTT assay, PC-3; assay type: cell-based; conditions: Homo sapiens, read-out: IC50 PC-3
Protocol: (§1) Human cancer cell lines—prostatic adenocarcinoma (PC-3, ATCC CRL-7934), lung adenocarcinoma (A549, ATCC CCL-185), and cervical carcinoma (SiHa, ATCC HTB-35)—along with normal mouse fibroblasts (L929, ATCC CRL-6364) were cultured as monolayers in Dulbecco’s Modified Eagle Medium (DMEM) supplemented with 10% (v/v) fetal bovine serum (FBS), 1% (v/v) penicillin, and 1% (v/v) streptomycin. These cultures were maintained at 37 °C in a humidified atmosphere with 5% CO2. The antiproliferative effects of Phyllanthus-derived extracts and isolated compounds were evaluated using a previously described method. Cells were seeded at 5 × 10^3/well in 96-well plates (100 µL) and incubated for 24 h. After incubation, the medium was replaced with 100 µL of serum-free medium containing varying concentrations of the treatments (0.5–250 µg/mL for extracts and 0.01–100 µg/mL for pure compounds). Each treatment was tested in triplicate. Controls included a PBS-containing medium as a blank, 1% (w/v) bovine serum albumin-amended medium as a negative control (100% survival), and podophyllotoxin (0.16–100 µg/mL) as a positive control. After 48 h of treatment, cell viability was determined by adding 10 µL of MTT (5 mg/mL) to each well, followed by a 3-h incubation under the same culture conditions. The resulting formazan crystals were dissolved in 100 µL of DMSO, and absorbance was measured at 570 nm using a Varioskan LUX 96-well plate reader (Thermo Fisher Scientific, Waltham, MA, USA). The antiproliferative effects were quantified as the half-maximal inhibitory concentration (IC50) in µg/mL for extracts and µM for pure compounds. Dose–response curves were used to determine IC50 values from non-linear regression using GraphPad 7.0 (GraphPad, San Diego, CA, USA).

[2] = test system: SiHa (cervical carcinoma); test: Antiproliferative MTT assay, SiHa; assay type: cell-based; conditions: Homo sapiens
Protocol: as §1

A549 (lung carcinoma) = test: Antiproliferative MTT assay, A549; assay type: cell-based; conditions: Homo sapiens, read-out: IC50 A549
Protocol: as §1

[3] = test system: L929 (murine fibroblasts); test: Antiproliferative MTT assay, normal fibroblasts L929; assay type: cell-based, mouse; conditions: for IC50: Mus musculus, read-out: IC50 L929
Protocol: as §1

[4] = pure compounds, 48 h treatment, MTT
[5] = pure compounds, 48 h treatment, MTT, read-out: IC50 SiHa
[6] = A549, pure compounds, 48 h treatment, MTT
[7] = L929, pure compounds, 48 h treatment, MTT, normal cell line

IC50 [1, 4] [µM] | IC50 [2, 5] [µM] | IC50 (A549 (lung carcinoma); [6]) [µM] | SMILES | IC50 [3, 7] [µM] | IC50 L929 ([3]; pure compounds, 48 h treatment, MTT, normal cell line) | IC50 ([1]; 48 h) [µM] | IC50 ([2]; 48 h, read-out: IC50 SiHa, pure compounds, 48 h treatment, MTT) [µM] | IC50 (A549 (lung carcinoma); A549, 48 h) [µM] | IC50 ([3]; L929, 48 h) [µM] | IC50 ([2]; 48 h, read-out: IC50 SiHa) [µM]
6.55 | 56.8 | 78.6 | COc1cc(C=C2C(=O)OCC2Cc2ccc(O)c(OC)c2)ccc1O (single isomer, unassigned; (+)) [Compound 2, (+)-acutissimalignan B] | > 100 | no observed cytotoxicity |  |  |  |  | 
 |  |  | COc1cc(-c2c3c(c(OC)c4cc5c(cc24)OCO5)C(OC(C)=O)OC3=O)cc2c1OCO2 (single isomer, unassigned; (+)) [Compound 6, (+)-5-methoxy-9-(7-methoxybenzo[d][1,3]dioxol-5-yl)-8-oxo-6,8-dihydrofuro[3′,4′:6,7]naphtho[2,3-d][1,3]dioxol-6-yl acetate] |  |  | 15.3 | 3.62 | 26.5 | 86.3 | 
16.3 | 8.61 | 93.2 | COc1cc2c(OC)c3c(c(-c4ccc5c(c4)OCO5)c2cc1O)C(=O)OC3 [Compound 3, phyllanthusmin A] | 92.3 |  |  |  |  |  | 
4.55 | 61.2 | 12.3 | O=C1OC[C@H](Cc2ccc3c(c2)OCO3)[C@H]1Cc1ccc2c(c1)OCO2 [Compound 4, (−)-hinokinin] | 76.3 |  |  |  |  |  | 
17.6 | 6.53 | 50.3 | COc1cc2c(OC)c3c(c(-c4ccc5c(c4)OCO5)c2cc1OC)C(=O)OC3 [Compound 5, justicidin A] | > 100 |  |  |  |  |  | 
15.2 | 5.23 | 45.3 | COc1cc2c(OC)c3c(c(-c4ccc5c(c4)OCO5)c2cc1OC)C(=O)OC3OC (centres unmarked) [Compound 7, justicidin P] | > 100 |  |  |  |  |  | 
 |  |  | COc1cc([C@@H]2c3cc4c(cc3[C@H](O)[C@H]3COC(=O)[C@H]23)OCO4)cc(OC)c1OC [ppt, podophyllotoxin, reference compound] |  |  | 2.22 |  | 4.82 | 2.53 | 1.85
